Test results from patent publication US9260439B2, “Dihydropyrrolopyrimidine derivatives” (PFIZER INC., priority 2014, dated 2016).
pKi: −log10 of the molar value. Structures can show the parent of a compound that is named as a salt.

Target: full-length PI3Kα (full-length p110α/p85α) (Homo sapiens (Human), UniProt P42336)
Experiment: PI3KA_FL fluorescence polarization kinase assay (Ki)
Type: biochemical
Conditions: 41 μM ATP
From the text: Enzyme Production for Biochemical Assays: 1) PI3Kα Complex (Full Length p110α and p85α)(“PI3KA_FL”)
Genes encoding for full length p110α and p85α subunits of PI3Kα complex were subcloned from existing constructs into pFASTBAC Dual vector (Life Technologies, Carlsbad, Calif.) using standard cloning procedures. Gene encoding p110α subunit was subcloned into polyhedrine promoter while gene encoding p85α subunit was subcloned into p10 promoter. Additionally, sequence encoding for histidine tag and Tobacco Etch Virus (“TEV”) cleavage site preceded p110α ORF (Open Reading Frame). Recombinant baculovirus was generated using Bac-to-Bac protocol (Life Technologies, Carlsbad, Calif.) and large scale expression was conducted in Sf21 (Life Technologies, Carlsbad, Calif.) cells at a multiplicity of infection (“MOI”)=1 for 72 hours. Cells were lyzed in 50 mM Tris pH 8.0, 250 mM NaCl, 5% glycerol, 0.25 mM TCEP, and 20 mM imidazole. The PI3Kα complex was purified from clarified supernatant using Immobilized Metalo Affinity Chromatography (“IMAC”). The protein was eluted from the column using 50 mM Tris pH 8.0, 200 mM NaCl, 5% glycerol, 0.25 mM TCEP, and 200 mM imidazole, and further desalted into 50 mM Tris pH 8.0, 20 mM NaCl, and 0.25 mM TCEP prior to loading on MonoQ sepharose (GE Healthcare, Piscataway, N.J.). PI3Kα complex was eluted from MonoQ sepharose over 20 column volumes using 0-30% gradient of buffer B (50 mM Tris pH 8.0, 1 M NaCl, and 0.25 mM TCEP). The peak fractions were pulled together and loaded on Superdex 200 26/60 SEC column equilibrated in 50 mM Tris pH 8.0, 200 mM NaCl, and 0.5 mM TCEP. […] Purity and integrity of the complex was confirmed using LCMS, analytical SEC and SDS-PAGE (sodium dodecyl sulfate polyacrylamide gel electrophoresis) analysis.
The biochemical assays of kinase activity of full-length PI3Kα (full-length p110α/p85a) or truncated PI3Kα (p110α/iSH2 p85a) were conducted using a fluorescence polarization format similar to the procedure of Yuan J., et al., (2011) “PF-04691502, a Potent and Selective Oral Inhibitor of PI3K and mTOR Kinases with Antitumor Activity”, Mol Cancer Ther. 10, 2189-2199. The enzymatic reactions were conducted in 50 μL volumes in 96-well plates. The reactions contained human recombinant PI3Kα (2 nM full-length p110α/p85α or 0.5 nM p110α/iSH2 p85) and 30 μM phosphatidylinositol 4,5-bisphosphate (“PIP2”) (Cayman Chemical Company, Ann Arbor, Mich.) and were sonicated for 1 minute prior to adding PI3Kα enzyme (PI3KA_Act or PI3KA_FL), DMSO or test compound (12-point 3-fold serial dilution, 3 μM top dose, 2° A) DMSO final concentration), 5 mM MgCl2, 50 mM HEPES pH 7.4, 150 mM NaCl, 1 mM DTT ((2S,3S)-1,4-bis(sulfanyl)butane-2,3-diol), and 0.05% 3-[(3-cholamidopropyl)dimethylammonio]-1-propanesulfonate (“CHAPS”). […] The reactions were incubated for 30 min at room temperature, stopped with EDTA pH 8 (10 mM final concentration). In a detection plate, 15 μL of detector/probe mixture, containing 480 nM GST-Grp1 PH domain protein (University of Dundee, Dundee, UK) and 12 nM carboxytetramethylrhodamine (“TAMRA”)-tagged fluorescent phosphatidylinositol (3,4,5)-triphosphate (“PIP3”) (Echelon Biosciences, Inc., Salt Lake City, Utah) in assay buffer, was mixed with 15 μL of kinase reaction mixture. The plate was shaken for 30 minutes and fluorescence polarization values were measured on an LJL Analyst HT plate reader (Molecular Devices, Sunnyvale, Calif.). […] The inhibition constants (Ki) were calculated by fitting fluorescence polarization values, corresponding to initial reaction rates, to the Morrison equation (Morrison, J. F. (1969) Kinetics of the reversible inhibition of enzyme catalysed reactions by tight-binding inhibitors. Biochim. Biophys. Acta 185, 269-286) for tight-binding competitive inhibitors using non-linear regression method (GraphPad Prism, GraphPad Software, San Diego, Calif.).

Chain of full-length PI3Kα (full-length p110α/p85α) (P42336 whole entry): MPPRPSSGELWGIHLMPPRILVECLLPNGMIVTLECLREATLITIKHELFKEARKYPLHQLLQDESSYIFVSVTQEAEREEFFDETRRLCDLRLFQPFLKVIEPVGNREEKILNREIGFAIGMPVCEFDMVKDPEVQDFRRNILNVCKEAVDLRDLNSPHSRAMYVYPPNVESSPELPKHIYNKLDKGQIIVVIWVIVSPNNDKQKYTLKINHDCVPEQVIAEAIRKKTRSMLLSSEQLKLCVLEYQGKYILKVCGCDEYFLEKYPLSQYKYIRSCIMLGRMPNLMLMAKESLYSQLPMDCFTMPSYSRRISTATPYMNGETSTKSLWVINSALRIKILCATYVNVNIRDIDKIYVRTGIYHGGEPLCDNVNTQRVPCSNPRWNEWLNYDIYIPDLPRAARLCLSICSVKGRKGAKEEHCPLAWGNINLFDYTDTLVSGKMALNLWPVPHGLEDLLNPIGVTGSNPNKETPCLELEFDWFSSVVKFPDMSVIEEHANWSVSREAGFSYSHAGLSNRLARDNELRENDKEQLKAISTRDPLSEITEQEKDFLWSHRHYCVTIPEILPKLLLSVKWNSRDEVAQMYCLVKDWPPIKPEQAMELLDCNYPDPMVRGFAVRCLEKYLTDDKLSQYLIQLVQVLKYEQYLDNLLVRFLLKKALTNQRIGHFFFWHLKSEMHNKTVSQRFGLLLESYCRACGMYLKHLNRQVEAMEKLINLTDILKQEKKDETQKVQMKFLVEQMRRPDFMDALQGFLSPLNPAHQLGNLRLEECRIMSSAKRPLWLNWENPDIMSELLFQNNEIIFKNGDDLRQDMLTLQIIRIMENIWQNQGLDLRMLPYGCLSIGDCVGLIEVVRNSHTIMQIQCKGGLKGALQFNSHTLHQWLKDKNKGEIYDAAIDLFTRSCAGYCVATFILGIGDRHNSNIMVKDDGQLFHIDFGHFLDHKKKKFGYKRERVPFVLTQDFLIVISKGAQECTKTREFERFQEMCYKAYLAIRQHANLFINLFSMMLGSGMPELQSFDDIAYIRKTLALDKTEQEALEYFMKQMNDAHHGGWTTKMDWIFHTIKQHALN
Chain of full-length PI3Kα (full-length p110α/p85α) (P27986 whole entry partner): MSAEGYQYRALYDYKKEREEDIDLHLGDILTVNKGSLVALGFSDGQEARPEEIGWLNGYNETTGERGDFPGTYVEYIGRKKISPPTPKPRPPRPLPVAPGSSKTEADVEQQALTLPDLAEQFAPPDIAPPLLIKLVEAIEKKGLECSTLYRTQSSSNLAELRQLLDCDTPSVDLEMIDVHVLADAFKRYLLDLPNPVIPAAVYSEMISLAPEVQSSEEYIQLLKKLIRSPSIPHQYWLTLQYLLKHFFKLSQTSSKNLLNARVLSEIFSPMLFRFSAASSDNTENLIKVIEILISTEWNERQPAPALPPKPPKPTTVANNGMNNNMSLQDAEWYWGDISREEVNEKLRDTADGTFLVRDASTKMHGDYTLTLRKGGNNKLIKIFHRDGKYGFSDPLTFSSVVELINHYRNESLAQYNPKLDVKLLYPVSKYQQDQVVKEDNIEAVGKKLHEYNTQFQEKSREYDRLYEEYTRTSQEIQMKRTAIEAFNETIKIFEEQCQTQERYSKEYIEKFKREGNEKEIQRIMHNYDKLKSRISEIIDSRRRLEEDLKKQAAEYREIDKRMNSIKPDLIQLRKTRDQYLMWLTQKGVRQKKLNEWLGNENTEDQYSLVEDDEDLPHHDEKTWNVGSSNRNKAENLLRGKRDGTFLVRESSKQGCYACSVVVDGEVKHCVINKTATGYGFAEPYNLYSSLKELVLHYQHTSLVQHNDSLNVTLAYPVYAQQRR

Compound | PI3KA_FL Ki
Nc1ncc(-c2nc(N3CCOCC3)nc3c2CCN3C2CCC(F)(F)C2)cn1 (racemic) [Example 19] | 0.528 nM
Nc1ncc(-c2nc(N3CCOCC3)nc3c2CCN3C2CCCOC2)cn1 (racemic) [Example 37] | 7.189 nM
CC(=O)N1CCCC(N2CCc3c(-c4cnc(N)nc4)nc(N4CCOCC4)nc32)C1 (racemic) [Example 51] | 18.619 nM
CC(=O)N1C[C@@H](F)[C@H](N2CCc3c(-c4cnc(N)nc4)nc(N4CCOCC4)nc32)C1 (single isomer, unassigned) [Example 66] | 0.926 nM
CC(=O)N1C[C@H](F)[C@@H](N2CCc3c(-c4cnc(N)nc4)nc(N4CCOCC4)nc32)C1 (single isomer, unassigned) [Example 67] | 1.899 nM
CC(=O)N1C[C@@H](N2CCc3c(-c4cnc(N)nc4)nc(N4CCOCC4)nc32)[C@@H](F)C1 (single isomer, unassigned) [Example 75] | 1.106 nM
C[C@H]1COCCN1c1nc(-c2cnc(N)nc2)c2c(n1)N([C@@H]1CCC(F)(F)C1)CC2 (single isomer, unassigned) [Example 88] | 0.674 nM
C[C@H]1COCCN1c1nc(-c2cnc(N)nc2)c2c(n1)N([C@H]1CCC(F)(F)C1)CC2 (single isomer, unassigned) [Example 89] | 1.247 nM
CC(=O)N1CC[C@@H](N2CCc3c(-c4cnc(N)nc4)nc(N4CCOCC4)nc32)C1 [Example 11] | 4.095 nM
CC(=O)N1CC[C@H](N2CCc3c(-c4cnc(N)nc4)nc(N4CCOCC4)nc32)C1 [Example 12] | 1.130 nM
Nc1ncc(-c2nc(N3CCOCC3)nc3c2CCN3C2CCC2)cn1 [Example 14] | 6.843 nM
CS(=O)(=O)[C@H]1C[C@H](N2CCc3c(-c4cnc(N)nc4)nc(N4CCOCC4)nc32)C1 [Example 15] | 0.856 nM
Nc1ncc(-c2nc(N3CCOCC3)nc3c2CCN3[C@H]2CCOC2)cn1 [Example 16] | 1.423 nM
Nc1ncc(-c2nc(N3CCOCC3)nc3c2CCN3[C@@H]2CCOC2)cn1 [Example 17] | 4.273 nM
Nc1ncc(-c2nc(N3CCOCC3)nc3c2CCN3C2CCOCC2)cn1 [Example 18] | 2.706 nM

Target: truncated PI3Kα (p110α/iSH2 p85α) (Homo sapiens (Human), UniProt P42336)
Sequence (P42336 whole entry, the tested form may be a part): as the sequence (P42336 whole entry) above
Experiment: PI3KA_Act fluorescence polarization kinase assay (Ki)
Type: biochemical
Conditions: 1 mM ATP
Outline: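 Ki values result from fitting fluorescence polarization signals to the Morrison equation for tight-binding competitive inhibitors. The detector was GST-Grp1 PH domain with TAMRA-PIP3, read after a 30 min room-temperature reaction of 0.5 nM truncated PI3Kα and 30 μM PIP2 at pH 7.4 in HEPES/NaCl/MgCl2/DTT/CHAPS buffer. Compounds were tested as 12-point 3-fold dilutions from 3 μM.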

Compound | PI3KA_Act Ki | pKi
C[C@H]1COCCN1c1nc(-c2cnc(N)nc2)c2c(n1)N([C@H]1[C@@H]3CNC[C@@H]31)CC2.Cl [Example 522, 5-{7-[(1R,5S,6s)-3-azabicyclo[3.1.0]hex-6-yl]-2-[(3S)-3-methylmorpholin-4-yl]-6,7-dihydro-5H-pyrrolo[2,3-d]pyrimidin-4-yl}pyrimidin-2-amine hydrochloride] | 6.845 nM | 
C[C@H]1COCCN1c1nc(-c2cnc(N)nc2)c2c(n1)N([C@H]1[C@H]3C[C@@H]1N(C(=O)OC(C)(C)C)C3)CC2 [Example 523, tert-butyl (1S,4S,5S)-5-{4-(2-aminopyrimidin-5-yl)-2-[(3S)-3-methylmorpholin-4-yl]-5,6-dihydro-7H-pyrrolo[2,3-d]pyrimidin-7-yl}-2-azabicyclo[2.1.1]hexane-2-carboxylate] |  | 8.28
C[C@H]1COCCN1c1nc(-c2cnc(N)nc2)c2c(n1)N([C@@H]1[C@@H]3C[C@H]1N(C(=O)OC(C)(C)C)C3)CC2 [Example 524, tert-butyl (1R,4R,5R)-5-{4-(2-aminopyrimidin-5-yl)-2-[(3S)-3-methylmorpholin-4-yl]-5,6-dihydro-7H-pyrrolo[2,3-d]pyrimidin-7-yl}-2-azabicyclo[2.1.1]hexane-2-carboxylate] |  | 8.73
C[C@H]1COCCN1c1nc(-c2cnc(N)nc2)c2c(n1)N([C@H]1[C@@H]3CN[C@H]1C3)CC2 [Example 525, 5-{7-[(1S,4S,5S)-2-azabicyclo[2.1.1]hex-5-yl]-2-[(3S)-3-methylmorpholin-4-yl]-6,7-dihydro-5H-pyrrolo[2,3-d]pyrimidin-4-yl}pyrimidin-2-amine hydrochloride] |  | 8.35
C[C@H]1COCCN1c1nc(-c2cnc(N)nc2)c2c(n1)N([C@@H]1[C@H]3CN[C@@H]1C3)CC2 [Example 526, 5-{7-[(1R,4R,5R)-2-azabicyclo[2.1.1]hex-5-yl]-2-[(3S)-3-methylmorpholin-4-yl]-6,7-dihydro-5H-pyrrolo[2,3-d]pyrimidin-4-yl}pyrimidin-2-amine hydrochloride] |  | 8.03
C[C@H]1COCCN1c1nc(-c2cnc(N)nc2)c2c(n1)N([C@@]13C[C@@H]1CN(C(=O)OC(C)(C)C)C3)CC2 [Example 527, tert-butyl (1S,5R)-1-{4-(2-aminopyrimidin-5-yl)-2-[(3S)-3-methylmorpholin-4-yl]-5,6-dihydro-7H-pyrrolo[2,3-d]pyrimidin-7-yl}-3-azabicyclo[3.1.0]hexane-3-carboxylate] | <0.018 nM | 
C[C@H]1COCCN1c1nc(-c2cnc(N)nc2)c2c(n1)N([C@]13C[C@H]1CN(C(=O)OC(C)(C)C)C3)CC2 [Example 528, tert-butyl (1R,5S)-1-{4-(2-aminopyrimidin-5-yl)-2-[(3S)-3-methylmorpholin-4-yl]-5,6-dihydro-7H-pyrrolo[2,3-d]pyrimidin-7-yl}-3-azabicyclo[3.1.0]hexane-3-carboxylate] | 0.092 nM | 
C[C@H]1COCCN1c1nc(-c2cnc(N)nc2)c2c(n1)N([C@@]13CNC[C@@H]1C3)CC2.Cl [Example 529, 5-{7-[(1R,5S)-3-azabicyclo[3.1.0]hex-1-yl]-2-[(3S)-3-methylmorpholin-4-yl]-6,7-dihydro-5H-pyrrolo[2,3-d]pyrimidin-4-yl}pyrimidin-2-amine hydrochloride] | 0.595 nM | 
C[C@H]1COCCN1c1nc(-c2cnc(N)nc2)c2c(n1)N([C@]13CNC[C@H]1C3)CC2.Cl [Example 530, 5-{7-[(1S,5R)-3-azabicyclo[3.1.0]hex-1-yl]-2-[(3S)-3-methylmorpholin-4-yl]-6,7-dihydro-5H-pyrrolo[2,3-d]pyrimidin-4-yl}pyrimidin-2-amine hydrochloride] | 2.624 nM | 
tert-butyl (cis-3-{4-(2-aminopyrimidin-5-yl)-2-[(3S)-3-methylmorpholin-4-yl]-5,6-dihydro-7H-pyrrolo[2,3-d]pyrimidin-7-yl}cyclobutyl)methylcarbamate [Example 448] | 0.690 nM | 
tert-butyl (trans-3-{4-(2-aminopyrimidin-5-yl)-2-[(3S)-3-methylmorpholin-4-yl]-5,6-dihydro-7H-pyrrolo[2,3-d]pyrimidin-7-yl}cyclobutyl)methylcarbamate [Example 449] | 0.294 nM | 
